Laboratory results reported in ChEMBL document CHEMBL1141920, “Substituted aminobenzimidazole pyrimidines as cyclin-dependent kinase inhibitors” (Bioorg Med Chem Lett, 2005).
Several values for one entry are separate records, joined by “and”; a condition that tells them apart may be missing. Equal values may be shown once.

Assays:
[1] = target: Cyclin-dependent kinase 1 (Homo sapiens, UniProt P06493); test: Inhibitory concentration against Cyclin dependent kinase 1
[2] = Inhibitory concentration against Mitogen-activated protein kinase p38; design: species or system Homo sapiens
[3] = Inhibitory concentration against Casein kinase 2
[4] = target: Mitogen-activated protein kinase 3 (Homo sapiens, UniProt P27361); test: Inhibitory concentration against Extracellular signal-regulated kinase 1
Mitogen-activated protein kinase 3, sequence (P27361 whole entry): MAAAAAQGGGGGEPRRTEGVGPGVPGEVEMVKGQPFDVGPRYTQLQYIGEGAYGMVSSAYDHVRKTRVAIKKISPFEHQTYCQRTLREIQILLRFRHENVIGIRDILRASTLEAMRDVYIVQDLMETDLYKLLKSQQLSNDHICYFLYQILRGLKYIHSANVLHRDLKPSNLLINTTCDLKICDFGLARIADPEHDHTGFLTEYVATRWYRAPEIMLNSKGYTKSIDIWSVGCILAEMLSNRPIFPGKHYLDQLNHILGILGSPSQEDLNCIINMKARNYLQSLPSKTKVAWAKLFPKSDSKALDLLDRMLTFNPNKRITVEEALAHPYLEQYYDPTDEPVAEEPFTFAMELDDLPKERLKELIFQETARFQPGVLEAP

[5] = Inhibitory concentration against Platelet-derived growth factor receptor
[6] = target: Cyclin-dependent kinase 4 (Homo sapiens, UniProt P11802); test: Inhibitory concentration against Cyclin dependent kinase 4
Cyclin-dependent kinase 4, sequence (P11802 whole entry): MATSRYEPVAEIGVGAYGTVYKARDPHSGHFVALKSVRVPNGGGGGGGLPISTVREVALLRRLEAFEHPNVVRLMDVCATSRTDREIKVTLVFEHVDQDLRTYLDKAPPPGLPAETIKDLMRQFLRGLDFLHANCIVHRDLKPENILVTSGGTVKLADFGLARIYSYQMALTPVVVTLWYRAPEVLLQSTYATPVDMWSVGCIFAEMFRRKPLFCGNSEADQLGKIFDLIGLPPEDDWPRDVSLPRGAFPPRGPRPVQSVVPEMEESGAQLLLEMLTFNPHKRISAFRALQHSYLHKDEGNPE

[7] = Inhibitory concentration against Cyclin dependent kinase 2; design: species or system Homo sapiens

Cyclin-dependent kinase 1, sequence (P06493 whole entry): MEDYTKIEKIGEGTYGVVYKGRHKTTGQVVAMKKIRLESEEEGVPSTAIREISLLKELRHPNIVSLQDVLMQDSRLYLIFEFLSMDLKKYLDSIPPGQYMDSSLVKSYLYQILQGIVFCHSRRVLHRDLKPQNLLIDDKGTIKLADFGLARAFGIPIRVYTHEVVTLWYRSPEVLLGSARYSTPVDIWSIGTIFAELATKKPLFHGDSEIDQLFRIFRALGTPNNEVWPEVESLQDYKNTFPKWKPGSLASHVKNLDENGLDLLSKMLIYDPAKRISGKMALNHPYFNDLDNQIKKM

Row | SMILES | IC50 [1] [nM] | also measured
1 | c1cc(Nc2ccc3[nH]ccc3c2)nc(Nc2ccc3[nH]ccc3c2)n1 | > 1000 | –
2 | Clc1cccc(CNc2nc(Nc3ccc4[nH]cnc4c3)ncc2Br)c1Cl | 126 | –
3 | COc1cccc(Oc2nc(Nc3ccc4nc[nH]c4c3)ncc2C(F)(F)F)c1 | 160 | –
4 | Fc1ccc(Oc2nc(Nc3ccc4[nH]cnc4c3)ncc2C(F)(F)F)cc1 | 32 | –
5 | CC(C)COc1nc(Nc2ccc3[nH]cnc3c2)ncc1C(F)(F)F | 2 | –
6 | FC(F)(F)c1ccc(Oc2nc(Nc3ccc4[nH]cnc4c3)ncc2C(F)(F)F)cc1 | > 1000 | –
7 | FC(F)(F)c1cnc(Nc2ccc3[nH]ccc3c2)nc1Nc1ccc2[nH]ccc2c1 | > 1000 | –
8 | Brc1cnc(Nc2ccc3[nH]cnc3c2)nc1NC1CCc2ccccc21 (centres undefined) | 34 | –
9 | FC(F)(F)c1cnc(Nc2ccc3[nH]cnc3c2)nc1OC1CCCCC1 | 43 | –
10 | FC(F)(F)c1cnc(Nc2ccccc2Cl)nc1Nc1ccc2nc[nH]c2c1 | > 1000 | –
11 | FC(F)(F)c1cnc(Nc2ccc3[nH]cnc3c2)nc1Nc1ccccc1Cl | – | IC50 [2]: > 1000 nM; IC50 [3]: 510 nM; IC50 [4]: > 1000 nM; IC50 [5]: 290 nM
12 | CCOc1nc(Nc2ccc3nc[nH]c3c2)ncc1C(F)(F)F | 77 | –
13 | FC(F)(F)c1cnc(Nc2cccc(Cl)c2)nc1Nc1ccc2[nH]cnc2c1 | 22 | –
14 | COc1cccc(Sc2nc(Nc3ccc4nc[nH]c4c3)ncc2C(F)(F)F)c1 | > 1000 | –
15 | CC(C)Oc1nc(Nc2ccc3nc[nH]c3c2)ncc1C(F)(F)F | 25 | –
16 | Fc1cnc(Nc2ccc3[nH]ccc3c2)nc1Nc1ccc2[nH]ccc2c1 | > 1000 | –
17 | Cc1ccccc1Sc1nc(Nc2ccc3[nH]cnc3c2)ncc1C(F)(F)F | 135 | –
18 | Cc1ccccc1Oc1nc(Nc2ccc3[nH]cnc3c2)ncc1C(F)(F)F | 4 | –
19 | FC(F)(F)c1cnc(Nc2ccc3nc[nH]c3c2)nc1Oc1ccc(Cl)cc1 | 252 | –
20 | CN(c1cccc(Cl)c1)c1ncc(C(F)(F)F)c(Nc2ccc3nc[nH]c3c2)n1 | > 1000 | –
21 | COc1ccc(Nc2nc(Nc3ccc4[nH]cnc4c3)ncc2C(F)(F)F)cc1 | 8 | IC50 [2]: > 1000 nM; IC50 [6]: 57 nM and 230 nM; IC50 [3]: 11 nM; IC50 [7]: 31 nM; IC50 [4]: > 1000 nM; IC50 [5]: 33 nM
22 | FC(F)(F)c1cnc(Nc2ccc3nc[nH]c3c2)nc1Oc1ccc(Br)cc1 | 562 | –
23 | FC(F)(F)c1ccc(Nc2ncc(C(F)(F)F)c(Nc3ccc4nc[nH]c4c3)n2)cc1 | 15 | –

Now from value to molecule, other results behind:

Row | IC50 [1] [nM] | SMILES | also measured
24 | 15 | Cc1cccc(Nc2ncc(C(F)(F)F)c(Nc3ccc4nc[nH]c4c3)n2)c1 | –
25 | > 1000 | Brc1cnc(Nc2ccc3[nH]ccc3c2)nc1Nc1ccc2[nH]ccc2c1 | –
26 | 0.1 | NS(=O)(=O)c1ccc(Nc2ncc(C(F)(F)F)c(Nc3ccc4nc[nH]c4c3)n2)cc1 | –
27 | 430 | Fc1cnc(Nc2ccc3nc[nH]c3c2)nc1Nc1ccc2nc[nH]c2c1 | –
28 | 10 | FC(F)(F)c1cnc(Nc2ccc3[nH]cnc3c2)nc1Nc1ccc2[nH]cnc2c1 | –
29 | 34 | Brc1cnc(Nc2ccc3nc[nH]c3c2)nc1Nc1ccc(Oc2cccnc2)cc1 | –
30 | 9 | Brc1cnc(Nc2ccc3[nH]cnc3c2)nc1Nc1ccc2c(c1)OCO2 | –
31 | 4 | FC(F)(F)c1cnc(Nc2ccc3nc[nH]c3c2)nc1Nc1ccc(Cl)cc1 | –
32 | 9 | Clc1cccc(Nc2ncc(Br)c(Nc3ccc4nc[nH]c4c3)n2)c1 | –
33 | > 1000 | c1cc(Nc2ccc3[nH]cnc3c2)nc(Nc2ccc3[nH]cnc3c2)n1 | –
34 | 11 | FC(F)(F)c1cnc(Nc2ccc(Br)cc2)nc1Nc1ccc2[nH]cnc2c1 | IC50 [2]: > 1000 nM; IC50 [6]: 260 nM and 1200 nM; IC50 [3]: 91 nM; IC50 [7]: 73 nM; IC50 [4]: 750 nM; IC50 [5]: 190 nM
35 | 3 | FC(F)(F)c1cnc(Nc2ccc3nc[nH]c3c2)nc1Nc1cccc(Cl)c1 | –
36 | 4 | Fc1ccc(Nc2nc(Nc3ccc4[nH]cnc4c3)ncc2Br)cc1 | –
37 | 248 | Brc1cnc(Nc2ccc(Oc3cccnc3)cc2)nc1Nc1ccc2nc[nH]c2c1 | –
38 | 392 | Brc1cnc(Nc2ccc3nc[nH]c3c2)nc1NC1CCCc2ccccc21 (centres undefined) | –
39 | 14 | Brc1cnc(Nc2ccc3nc[nH]c3c2)nc1Nc1ccc2nc[nH]c2c1 | –
